# Measured values reported in patent US12343326B2, “Psychoactive medicines and their use for treating psychiatric and neurological conditions and disorders” (Transcend Therapeutics, Inc., priority 2021, dated 2025).
# Tests used:
# Experiment in all cases: β-arrestin based GPCR screen (PathHunter / GPCRmax), agonist mode
# Format in all cases: cell-based
# Parameters in all cases: host or cells: PathHunter cell lines
# [1] = target: 168 GPCRs (Homo sapiens, UniProt O00574)
# Experimental: (§1) For agonist determination, cells were incubated with sample to induce response. […] Vehicle concentration was 1%.
# [2] = target: 168 GPCRs (Homo sapiens, UniProt P21728)
# Experimental: as §1
# [3] = target: 168 GPCRs (Homo sapiens, UniProt P25021)
# Experimental: as §1
# [4] = target: 168 GPCRs (Homo sapiens, UniProt P25025)
# Experimental: as §1
# [5] = target: 168 GPCRs (Homo sapiens, UniProt P25101); settings: EDNRA
# Experimental: as §1
# [6] = target: 168 GPCRs (Homo sapiens, UniProt P30518); settings: AVPR2, Agonist
# Experimental: as §1
# [7] = target: T1, 168 GPCRs (Homo sapiens, UniProt P32247); settings: BRS3, Agonist
# T1 sequence (P32247 1-399): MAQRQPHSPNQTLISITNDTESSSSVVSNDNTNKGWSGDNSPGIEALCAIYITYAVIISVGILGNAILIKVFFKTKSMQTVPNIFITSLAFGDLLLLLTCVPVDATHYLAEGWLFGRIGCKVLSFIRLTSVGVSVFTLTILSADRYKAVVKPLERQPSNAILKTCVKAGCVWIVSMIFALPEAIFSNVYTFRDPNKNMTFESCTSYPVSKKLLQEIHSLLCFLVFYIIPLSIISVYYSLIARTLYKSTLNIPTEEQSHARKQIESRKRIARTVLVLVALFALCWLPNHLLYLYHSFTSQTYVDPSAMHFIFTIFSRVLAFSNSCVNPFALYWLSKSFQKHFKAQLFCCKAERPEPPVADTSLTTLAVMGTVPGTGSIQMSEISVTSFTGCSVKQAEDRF
# Experimental: as §1
# [8] = target: 168 GPCRs (Homo sapiens, UniProt P33032); settings: MC5R
# Experimental: as §1
# [9] = target: 168 GPCRs (Homo sapiens, UniProt P35368); settings: ADRA1B, Agonist
# Experimental: as §1
# [10] = target: 168 GPCRs (Homo sapiens, UniProt P35372)
# Experimental: as §1
# [11] = target: 168 GPCRs (Homo sapiens, UniProt P43115)
# Experimental: as §1
# [12] = target: 168 GPCRs (Homo sapiens, UniProt P46091)
# Experimental: as §1
# [13] = target: 168 GPCRs (Homo sapiens, UniProt P47900)
# Experimental: as §1
# [14] = target: 168 GPCRs (Homo sapiens, UniProt P51677); settings: CCR3, Agonist
# Experimental: as §1
# [15] = target: 168 GPCRs (Homo sapiens, UniProt P55085)
# Experimental: as §1
# [16] = target: 168 GPCRs (Homo sapiens, UniProt P61073)
# Experimental: as §1
# [17] = target: 168 GPCRs (Homo sapiens, UniProt Q8TDS5)
# Experimental: as §1
# [18] = target: 168 GPCRs (Homo sapiens, UniProt Q96LB2)
# Experimental: as §1
# [19] = target: 168 GPCRs (Homo sapiens, UniProt Q9H244)
# Experimental: as §1
# [20] = target: 168 GPCRs (Homo sapiens, UniProt Q9HB89); settings: NMU1R
# Experimental: as §1
# Chain of 168 GPCRs (Homo sapiens, UniProt Q96LB2) (Q96LB2 whole entry): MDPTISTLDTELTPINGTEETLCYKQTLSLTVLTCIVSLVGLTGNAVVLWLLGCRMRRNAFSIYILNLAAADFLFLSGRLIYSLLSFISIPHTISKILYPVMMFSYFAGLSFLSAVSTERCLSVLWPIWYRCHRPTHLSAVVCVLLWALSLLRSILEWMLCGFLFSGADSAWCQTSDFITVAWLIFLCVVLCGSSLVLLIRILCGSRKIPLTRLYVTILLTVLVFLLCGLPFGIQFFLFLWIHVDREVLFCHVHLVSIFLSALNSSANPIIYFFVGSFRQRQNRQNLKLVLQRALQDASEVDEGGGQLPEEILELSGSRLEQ
# Chain of 168 GPCRs (Homo sapiens, UniProt P47900) (P47900 whole entry): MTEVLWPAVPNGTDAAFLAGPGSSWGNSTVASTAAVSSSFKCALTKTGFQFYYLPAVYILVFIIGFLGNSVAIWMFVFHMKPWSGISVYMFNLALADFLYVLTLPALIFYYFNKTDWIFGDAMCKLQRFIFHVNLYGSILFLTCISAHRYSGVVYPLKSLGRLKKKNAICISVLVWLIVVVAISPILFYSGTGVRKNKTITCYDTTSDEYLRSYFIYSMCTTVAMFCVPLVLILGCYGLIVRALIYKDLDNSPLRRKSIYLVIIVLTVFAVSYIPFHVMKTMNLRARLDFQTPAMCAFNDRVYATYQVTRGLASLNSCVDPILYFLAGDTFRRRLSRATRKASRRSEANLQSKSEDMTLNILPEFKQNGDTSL
# Chain of 168 GPCRs (Homo sapiens, UniProt P55085) (P55085 26-397): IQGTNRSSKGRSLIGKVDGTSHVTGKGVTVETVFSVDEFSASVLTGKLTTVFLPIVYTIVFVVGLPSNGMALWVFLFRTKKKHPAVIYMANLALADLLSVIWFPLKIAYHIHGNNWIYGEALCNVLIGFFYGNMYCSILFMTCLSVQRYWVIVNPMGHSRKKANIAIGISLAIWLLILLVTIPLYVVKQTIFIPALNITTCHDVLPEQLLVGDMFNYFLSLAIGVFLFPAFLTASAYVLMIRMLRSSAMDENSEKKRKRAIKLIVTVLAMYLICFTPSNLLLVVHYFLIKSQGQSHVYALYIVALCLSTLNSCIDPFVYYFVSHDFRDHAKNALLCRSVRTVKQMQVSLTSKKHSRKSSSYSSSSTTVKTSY
# Chain of 168 GPCRs (Homo sapiens, UniProt Q8TDS5) (Q8TDS5 whole entry): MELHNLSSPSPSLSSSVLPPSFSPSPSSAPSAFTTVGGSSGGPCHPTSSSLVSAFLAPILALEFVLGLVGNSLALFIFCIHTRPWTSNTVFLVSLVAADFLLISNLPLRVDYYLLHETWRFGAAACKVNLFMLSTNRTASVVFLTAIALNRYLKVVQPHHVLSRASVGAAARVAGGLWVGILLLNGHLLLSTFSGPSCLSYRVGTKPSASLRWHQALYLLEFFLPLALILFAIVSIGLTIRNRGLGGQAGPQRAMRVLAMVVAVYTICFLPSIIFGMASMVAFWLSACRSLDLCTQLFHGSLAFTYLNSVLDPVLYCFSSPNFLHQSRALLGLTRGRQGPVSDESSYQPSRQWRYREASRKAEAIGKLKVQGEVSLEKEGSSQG
# Chain of 168 GPCRs (Homo sapiens, UniProt P30518) (P30518 whole entry): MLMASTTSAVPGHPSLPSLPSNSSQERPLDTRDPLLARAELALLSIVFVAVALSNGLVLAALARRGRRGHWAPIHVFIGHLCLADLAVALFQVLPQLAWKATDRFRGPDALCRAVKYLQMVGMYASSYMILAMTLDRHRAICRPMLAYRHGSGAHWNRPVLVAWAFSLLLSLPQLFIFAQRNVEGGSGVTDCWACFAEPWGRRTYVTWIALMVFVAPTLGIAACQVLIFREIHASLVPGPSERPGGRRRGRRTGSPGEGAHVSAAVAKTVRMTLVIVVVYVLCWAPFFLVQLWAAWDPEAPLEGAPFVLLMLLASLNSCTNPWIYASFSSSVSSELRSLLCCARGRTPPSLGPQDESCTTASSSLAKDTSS
# Chain of 168 GPCRs (Homo sapiens, UniProt P46091) (P46091 whole entry): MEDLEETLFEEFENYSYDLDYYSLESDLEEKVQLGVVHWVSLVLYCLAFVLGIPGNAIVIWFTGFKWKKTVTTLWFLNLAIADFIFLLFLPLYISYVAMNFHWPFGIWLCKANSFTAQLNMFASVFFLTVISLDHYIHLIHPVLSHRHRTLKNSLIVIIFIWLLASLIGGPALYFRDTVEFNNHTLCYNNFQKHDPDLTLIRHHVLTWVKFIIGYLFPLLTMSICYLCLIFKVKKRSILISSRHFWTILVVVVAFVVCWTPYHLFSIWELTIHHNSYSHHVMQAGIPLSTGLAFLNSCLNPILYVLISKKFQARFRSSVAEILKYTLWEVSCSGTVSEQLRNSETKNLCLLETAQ
# Chain of 168 GPCRs (Homo sapiens, UniProt P35372) (P35372 whole entry): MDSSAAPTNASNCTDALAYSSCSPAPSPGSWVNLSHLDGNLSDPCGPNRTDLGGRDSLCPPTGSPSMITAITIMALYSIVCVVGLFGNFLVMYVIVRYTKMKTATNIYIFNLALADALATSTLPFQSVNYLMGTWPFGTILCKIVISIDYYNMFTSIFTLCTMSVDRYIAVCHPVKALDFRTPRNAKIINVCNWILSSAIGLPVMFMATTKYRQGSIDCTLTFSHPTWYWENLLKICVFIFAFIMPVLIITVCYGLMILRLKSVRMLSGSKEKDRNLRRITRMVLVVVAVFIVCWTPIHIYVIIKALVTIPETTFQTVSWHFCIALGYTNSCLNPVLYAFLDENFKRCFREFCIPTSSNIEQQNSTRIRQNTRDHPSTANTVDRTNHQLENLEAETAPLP
# Chain of 168 GPCRs (Homo sapiens, UniProt O00574) (O00574 whole entry): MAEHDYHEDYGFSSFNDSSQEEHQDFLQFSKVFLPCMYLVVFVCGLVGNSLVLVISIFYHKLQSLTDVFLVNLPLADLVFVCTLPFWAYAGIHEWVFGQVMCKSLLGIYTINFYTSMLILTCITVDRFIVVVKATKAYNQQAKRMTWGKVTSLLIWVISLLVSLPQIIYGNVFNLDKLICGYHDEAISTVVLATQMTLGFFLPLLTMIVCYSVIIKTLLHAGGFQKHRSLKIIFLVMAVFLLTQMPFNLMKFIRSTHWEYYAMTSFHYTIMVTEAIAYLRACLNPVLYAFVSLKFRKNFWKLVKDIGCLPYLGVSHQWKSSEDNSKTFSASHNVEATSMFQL
# Chain of 168 GPCRs (Homo sapiens, UniProt P51677) (P51677 whole entry): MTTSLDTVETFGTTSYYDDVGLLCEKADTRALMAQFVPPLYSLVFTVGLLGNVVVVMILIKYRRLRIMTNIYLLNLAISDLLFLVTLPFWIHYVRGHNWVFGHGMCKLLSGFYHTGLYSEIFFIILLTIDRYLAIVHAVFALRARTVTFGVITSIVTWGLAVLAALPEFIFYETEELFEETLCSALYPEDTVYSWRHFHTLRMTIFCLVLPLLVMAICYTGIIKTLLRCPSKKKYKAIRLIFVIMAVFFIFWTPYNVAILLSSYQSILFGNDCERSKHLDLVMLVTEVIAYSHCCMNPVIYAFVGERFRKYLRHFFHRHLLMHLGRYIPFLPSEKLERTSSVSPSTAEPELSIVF
# Chain of 168 GPCRs (Homo sapiens, UniProt P25021) (P25021 whole entry): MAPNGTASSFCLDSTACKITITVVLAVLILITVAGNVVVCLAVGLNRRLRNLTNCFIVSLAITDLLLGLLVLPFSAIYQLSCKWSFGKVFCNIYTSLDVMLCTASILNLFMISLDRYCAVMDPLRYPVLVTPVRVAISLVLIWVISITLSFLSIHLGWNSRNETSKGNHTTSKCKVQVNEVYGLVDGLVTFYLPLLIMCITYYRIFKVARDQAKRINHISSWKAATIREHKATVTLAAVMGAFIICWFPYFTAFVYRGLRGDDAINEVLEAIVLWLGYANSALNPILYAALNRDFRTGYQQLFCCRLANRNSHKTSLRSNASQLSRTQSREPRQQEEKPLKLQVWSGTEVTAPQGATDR
# Chain of 168 GPCRs (Homo sapiens, UniProt Q9HB89) (Q9HB89 whole entry): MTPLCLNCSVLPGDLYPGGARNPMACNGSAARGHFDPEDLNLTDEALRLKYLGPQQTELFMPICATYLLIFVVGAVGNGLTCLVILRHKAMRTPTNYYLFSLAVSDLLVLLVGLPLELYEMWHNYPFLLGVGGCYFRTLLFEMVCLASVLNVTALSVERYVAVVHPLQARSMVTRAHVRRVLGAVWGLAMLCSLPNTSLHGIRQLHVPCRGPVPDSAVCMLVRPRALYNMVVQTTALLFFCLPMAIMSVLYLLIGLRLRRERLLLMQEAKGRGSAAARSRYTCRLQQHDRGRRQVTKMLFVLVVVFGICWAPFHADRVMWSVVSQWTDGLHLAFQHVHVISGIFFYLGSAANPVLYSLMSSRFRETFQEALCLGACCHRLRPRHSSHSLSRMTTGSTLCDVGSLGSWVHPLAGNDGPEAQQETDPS
# Chain of 168 GPCRs (Homo sapiens, UniProt P35368) (P35368 whole entry): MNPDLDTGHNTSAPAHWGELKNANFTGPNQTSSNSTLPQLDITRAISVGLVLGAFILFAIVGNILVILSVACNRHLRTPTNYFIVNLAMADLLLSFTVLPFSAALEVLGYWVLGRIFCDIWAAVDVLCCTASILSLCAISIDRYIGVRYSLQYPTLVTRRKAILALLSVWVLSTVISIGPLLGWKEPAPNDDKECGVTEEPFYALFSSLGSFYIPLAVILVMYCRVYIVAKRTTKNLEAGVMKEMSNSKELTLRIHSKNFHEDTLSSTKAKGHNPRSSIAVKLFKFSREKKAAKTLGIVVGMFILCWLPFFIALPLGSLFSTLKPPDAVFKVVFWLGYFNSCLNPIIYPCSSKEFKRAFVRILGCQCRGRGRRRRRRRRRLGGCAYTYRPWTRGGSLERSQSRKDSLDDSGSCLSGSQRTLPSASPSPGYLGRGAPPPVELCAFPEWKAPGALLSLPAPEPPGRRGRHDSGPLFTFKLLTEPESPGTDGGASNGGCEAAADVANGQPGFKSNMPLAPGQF
# Chain of 168 GPCRs (Homo sapiens, UniProt P33032) (P33032 whole entry): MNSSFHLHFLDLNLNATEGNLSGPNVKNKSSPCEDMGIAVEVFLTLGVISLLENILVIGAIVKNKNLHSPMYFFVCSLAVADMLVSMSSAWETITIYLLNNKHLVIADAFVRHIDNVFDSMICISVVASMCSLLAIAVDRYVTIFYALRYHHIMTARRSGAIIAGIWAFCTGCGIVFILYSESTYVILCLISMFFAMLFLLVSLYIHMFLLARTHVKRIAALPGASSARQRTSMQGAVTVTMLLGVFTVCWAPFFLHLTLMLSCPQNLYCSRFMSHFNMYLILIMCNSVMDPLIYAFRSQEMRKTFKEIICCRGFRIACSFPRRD
smiles,measurement,setting,value
"CNC(C)C(=O)c1ccc2c(c1)OCO2 (stereo not shown) [methylone, 3,4-methylenedioxy-N-methylcathinone]",activity at 10 µM,"[1]; CXCR6, Agonist mode, 10 uM",0.3%
same,activity at 1 µM,"[1]; CXCR6, Agonist, 1 uM",0.3%
same,activity at 10 µM,"[2]; DRD1, Agonist mode, 10 uM",-1.6%
same,activity at 1 µM,"[2]; DRD1, Agonist, 1 uM",-1.6%
same,activity at 10 µM,"[3]; HRH2, Agonist mode, 10 uM",2.8%
same,activity at 1 µM,"[3]; HRH2, Agonist, 1 uM",-2.5%
same,activity at 10 µM,"[4]; CXCR2, Agonist mode, 10 uM",2.6%
same,activity at 1 µM,"[4]; CXCR2, Agonist, 1 uM",-0.2%
same,activity at 10 µM,"[5]; Agonist mode, 10 uM",1.4%
same,activity at 1 µM,"[5]; Agonist, 1 uM",0.3%
same,activity at 1 µM,[6]; 1 uM,-0.9%
same,activity at 10 µM,[6]; 10 uM,1%
same,activity at 1 µM,[7]; 1 uM,4.5%
same,activity at 10 µM,[7]; 10 uM,-4.6%
same,activity at 10 µM,"[8]; Agonist mode, 10 uM",8.9%
same,activity at 1 µM,"[8]; Agonist, 1 uM",-7.9%
same,activity at 1 µM,[9]; 1 uM,-3.3%
same,activity at 10 µM,[9]; 10 uM,-2.9%
same,activity at 10 µM,"[10]; OPRM1, OPRM1, Agonist mode, 10 uM",0.5%
same,activity at 1 µM,"[10]; OPRM1, OPRM1, Agonist, 1 uM",0.2%
same,activity at 10 µM,"[11]; PTGER3, Agonist mode, 10 uM",1.9%
same,activity at 1 µM,"[11]; PTGER3, Agonist, 1 uM",4.5%
same,activity at 10 µM,"[12]; GPR1, Agonist mode, 10 uM",-0.7%
same,activity at 1 µM,"[12]; GPR1, Agonist, 1 uM",-0.5%
same,activity at 10 µM,"[13]; P2RY1, Agonist mode, 10 uM",-4.1%
same,activity at 1 µM,"[13]; P2RY1, Agonist, 1 uM",2.2%
same,activity at 1 µM,[14]; 1 uM,-6.7%
same,activity at 10 µM,[14]; 10 uM,-7.6%
same,activity at 10 µM,"[15]; F2RL1, Agonist mode, 10 uM",3.8%
same,activity at 1 µM,"[15]; F2RL1, Agonist, 1 uM",-0.6%
same,activity at 10 µM,"[16]; CXCR4, Agonist mode, 10 uM",7%
same,activity at 1 µM,"[16]; CXCR4, Agonist, 1 uM",-4%
same,activity at 10 µM,"[17]; OXER1, Agonist mode, 10 uM",-3.7%
same,activity at 1 µM,"[17]; OXER1, Agonist, 1 uM",3.2%
same,activity at 10 µM,"[18]; MRGPRX1, Agonist mode, 10 uM",-1.5%
same,activity at 1 µM,"[18]; MRGPRX1, Agonist, 1 uM",-1.7%
same,activity at 10 µM,"[19]; P2RY12, Agonist mode, 10 uM",-2.5%
same,activity at 1 µM,"[19]; P2RY12, Agonist, 1 uM",-1.5%
same,activity at 10 µM,"[20]; Agonist mode, 10 uM",2%
same,activity at 1 µM,"[20]; Agonist, 1 uM",1.3%
